Measured values published in US5036072A, “Antiviral agent” (Ishihara Sangyo Kaisha Ltd., priority 1989, dated 1991).

Legend:
[1] = test system: helpes simplex virus (1-type, KOS strain); test: plaque-reduction evaluation method in Verocells; assay type: cell-based; conditions: drug added one hour after infection, counted three days later
Protocol: The antiviral activities were evaluated by a plaque-reduction evaluation method. Verocells were inoculated to a plastic Petri dish and then proliferated until they formed a monolayer. To each Petri dish, a predetermined number of plaque-forming units (about 100 to 500) of helpes simplex virus (1-type, KOS strain) were infected. Compound 3 was dissolved in 2% of bovine fetus serum inactivated by heating and adjusted to a predetermined concentration. One hour after the infection, the drug solution was added to the cultivation Petri dish (8 ml/Petri dish). Three days later, the cultivation Petri dish was fixed by formalin and dyed with Crystal Violet, whereupon the number of plaques was counted.

[2] = test system: reverse transcriptase derived from bird's myeloblastosis virus; test: inhibition of the reverse transcriptase activities; assay type: biochemical; conditions: 37° C. for 60 minutes, [3H]-TTP incorporation
Protocol: Now, the effects of the antiviral agent of the present invention for inhibition of the reverse transcriptase activities will be shown.
The test solution comprised magnesium chloride (5 mM), DTT (5 mM), sodium chloride (60 mM), [^3 H]-TTP (0.2 mM), poly(λA) (10 μg/ml), Oligo (dT) (0.04 U/ml), reverse transcriptase derived from bird's myeloblastosis virus (3 U/ml) and Tris hydrochloric acid (pH 8.0). Compound 3 was dissolved in cyclodextrin to obtain a solution having a concentration of 5 mg/ml, which was then diluted with water to a predetermined concentration for use.
Then, 50 μl of the test solution and 50 μl of the sample solution were mixed, and the mixture was incubated at 37° C. for 60 minutes. Then, 50 μl of the incubated solution was sampled and soaked into a DEA filter paper. Then, this filter paper was washed with a 5% sodium monohydrogen phosphate solution and then with water and ethanol, followed by drying. The radioactivity contained in the captured fraction was measured by means of a scintillation counter. Then, the inhibition rate (%) of the sample Compound 3 was calculated from the radioactivity of the test sample group and that of the control group.

Question: Which Number of plaques ([1]; 1 μg/ml) does the source give for `O=C(NC(=O)c1ccccc1[N+](=O)[O-])Nc1ccc(Oc2ncc(Br)cn2)c(Cl)c1` [Compound 3] here?
Answer: 264.5

Question: What about the inhibition at 1 µg/mL ([1]; 1 μg/ml) of the same compound?
Answer: 45.1%

Question: And the Number of plaques ([1]; 2.5 μg/ml)?
Answer: 122.0

Question: And the inhibition at 2.5 µg/mL ([1]; 2.5 μg/ml)?
Answer: 74.7%

Question: What about the Number of plaques ([1]; 5 μg/ml) of the same compound?
Answer: 27.5

Question: What about the inhibition at 5 µg/mL ([1]; 5 μg/ml) of the same compound?
Answer: 94.3%

Question: And the “Inhibition rate (%)” value ([2]; 1.25 μg/ml)?
Answer: 6%

Question: And the “Inhibition rate (%)” value ([2]; 2.5 μg/ml)?
Answer: 11%

Question: And the “Inhibition rate (%)” value ([2]; 5 μg/ml)?
Answer: 34%

Question: What about the “Inhibition rate (%)” value ([2]; 10 μg/ml) of the same compound?
Answer: 57%
